Test results taken from US3954793A, “1-(2-Propynyl)-1 H-indazole compounds” (priority 1973, dated 1976).
Like-named read-outs stand apart in the source and are kept apart here.

Legend:
[1] = system: Rutgers A strain house flies; assay: topical application, percent kill after 24 hours, resistant Rutgers A strain; assay type: in vivo, female); details: for percent kill after 24 hours, with GS 13005: GS 13005 1.0 + synergist 5.0 μg/fly
In short: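 Synergist plus mobam, Diazinon or GS 13005 dissolved in acetone, applied as 1.0 μl to the thorax of CO2-anaesthetised 3-to-5 day old female Rutgers A (resistant) house flies; doses in μg/fly. Flies held 10 per dish, 3-5 dishes per treatment, with skim milk; mortality scored at 24 h.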

[2] = system: polyvalent resistant (CH strain) houseflies; assay: whole plant or invertebrate; assay type: in vivo; details: CH strain; for percent kill after 24 hours, with Dimetilan: Dimetilan 2 + synergist 4 μg/fly; for mortality at 10 µg/fly: Musca domestica, topical, 24 h, read-out: percent kill after 24 hours, synergist alone; for mortality at 10 µg/fly / percent kill after 24 hours, synergist alone: insecticide 0, synergist 10 μg/fly; for percent kill after 24 hours, with GS 13005: GS 13005 1 + synergist 2 μg/fly; for percent kill after 24 hours, with pyrethrum: Pyrethrum 2 + synergist 4 μg/fly; for percent kill after 24 hours, with GS 13798: GS 13798 1 + synergist 2 μg/fly
Description: The effect of O-(2-propynyl) oximes with Dimetilan and with GS 13798 was obtained from tests on polyvalent resistant (CH strain) houseflies that had been chilled and to the dorsal region of which was applied an acetone solution of synergist and insecticide at a ratio of two to one. Duplicate tests were performed using 10 four to five-day old female houseflies per test. After dosage, the flies were put in a plastic petri dish with cotton soaked in a sugar-water solution. These doses of insecticide used without synergist caused 10-40% mortality.
In Table IX, and in the tables following it, the doses of topically applied insecticides and of synergists unless otherwise noted are expressed as micrograms per fly (μg/fly).
The effect of compounds II-C, II-D and II-E with Dimetilan and GS 13798 was determined, following the procedure of Example 5, from tests on polyvalent resistant (CH strain) houseflies. These doses of insecticide used without synergist caused 10-40% mortality.
The synergistic effect with GS 13005 of compounds I-A, I-B, I-D, I-E, I-F, I-G and I-I was determined from topical application tests to IN/WHO strain, Rutgers A strain and polyvalent CH strain houseflies using the procedures of Example 5. The percent kills of the IN/WHO strain flies after 24 hours are shown in Table XXVIII; of the Rutgers A strain, in Table XXIX; and of the polyvalent CH strain, in Table XXX. The doses of insecticide alone to the CH strain files caused 10-40% mortality.
The synergistic effect with Diazinon and GS 13005 of various of the benzyl 2-propynyl ethers identified in Tables II and IIa was determined by topical application tests on IN/WHO strain, and Rutgers A strain and polyvalent, resistant, CH strain houseflies using the procedures of Example 5. The percent kills after 24 hours of IN/WHO strain flies are shown in Table XXXI; of Rutgers A strain flies, in Table XXXII; and of CH strain flies, in Table XXXIII. The doses of insecticide alone to the CH strain flies caused 10-40% mortality.
The synergistic effect with pyrethrum of various synergist compounds was determined by topical application tests on polyvalent, resistant CH strain houseflies following the procedure of Example 5. Application of the insecticide alone caused 10-40% mortality.

[3] = system: Wilson strain house flies; assay type: in vivo, Wilson strain (susceptible); details: for Contact Synergistic Ratio, Pyrolan: LC50 pyrolan alone / LC50 with synergist
In short: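 Wilson strain house flies held at room temperature in glass jars coated with acetone-deposited insecticide film, alone or with synergist at 5:1 synergist:insecticide by weight.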

[4] = system: German male cockroaches (Blatella Germanicus); assay: topical application to thorax, 24 hour mortality of German male cockroaches; assay type: in vivo; details: for percent insect mortality, synergist alone (mobam test doses): synergist doses of Table XXXX; for percent insect mortality, synergist alone (mobam test doses) / percent insect mortality, synergist alone (GS 13005 test doses): no insecticide; for percent insect mortality, synergist alone (GS 13005 test doses): synergist doses of Table XXXXI
Description: The synergistic effect with mobam of synergist compounds I-B, II-H, II-K and IV-C is further illustrated by the 24 hour mortality data of German male cockroaches (Blatella Germanicus) shown in Table XXXX. The synergists and insecticide were diluted in acetone and applied in small droplets to the thorax of the insect. These doses of synergist alone gave zero percent insect mortality.
The synergistic effect with GS 13005 of compounds I-B, II-H, II-K, II-P, II-Q, II-R and IV-C is illustrated by the 24 hour mortality of German male cockroaches shown in Table XXXXI. These doses of synergist alone caused zero percent insect mortality.

[5] = Mobam 0.30 + synergist 1.5 μg/fly
[6] = Mobam 0.60 + synergist 3.0 μg/fly
[7] = insecticide 0, synergist 7.5 μg/fly
[8] = synergist to insecticide 5:1 by weight
[9] = Diazinon 1.0 + synergist 3.0 μg/fly
[10] = Diazinon 3.0 + synergist 3.0 μg/fly
[11] = insecticide 0, synergist 5.0 μg/fly
[12] = GS 13005 dose 0.08 + synergist 0.40, pretreated with synergist two hours before insecticide
[13] = GS 13005 dose 0.08 + synergist 4.0, cockroaches
[14] = Mobam dose 0.12 + synergist 0.60, pretreated with synergist two hours before insecticide
[15] = Mobam dose 0.16 + synergist 0.80, cockroaches
[16] = Mobam 0.40 + synergist 2.0 μg/fly
[17] = Mobam 0.15 + synergist 0.75 μg/fly
[18] = Diazinon 1.5 + synergist 7.5 μg/fly
[19] = Diazinon 3.0 + synergist 15 μg/fly
[20] = insecticide 0, synergist 15 μg/fly

Row | SMILES | percent kill after 24 hours, with Mobam [1, 5] | percent kill after 24 hours, synergist alone [1, 7] | mortality at 10 µg/fly [2] | percent kill after 24 hours, synergist alone [2] | Contact Synergistic Ratio, Pyrolan [3, 8] | percent kill after 24 hours, with GS 13005 [1] | percent kill after 24 hours, synergist alone [1, 11] | 24 hour mortality, with GS 13005 [4, 12] | percent insect mortality, synergist alone (GS 13005 test doses) [4] | Contact Synergistic Ratio, Carbaryl ([3]; in vivo) | percent kill after 24 hours, with GS 13005 [2] | also measured
1 | C#CCOCc1ccc(Cl)c(Cl)c1 [II-C] | 20% | 0% | 0% | 0% | 15 |  |  |  |  |  |  | percent kill after 24 hours, with Mobam [1, 6]: 67%; percent kill after 24 hours, with Dimetilan [2]: 100%; Contact Synergistic Ratio, Carbaryl ([3]; LC50 carbaryl alone / LC50 with synergist, synergist to insecticide 5:1 by weight): 100
2 | C#CCON=Cc1cccc([N+](=O)[O-])c1 [I-B] | 40% |  |  |  | 35 | 100% | 0% | 95% | zero | 270 |  | percent kill after 24 hours, with Diazinon [1, 9]: 5%; percent kill after 24 hours, with Diazinon [1, 10]: 90%; 24 hour mortality, with GS 13005 [4, 13]: 40%; 24 hour mortality, with Mobam [4, 14]: 80%; 24 hour mortality, with Mobam [4, 15]: 50%; percent insect mortality, synergist alone (mobam test doses) [4]: zero
3 | C#CCOCc1c(Cl)cccc1Cl [II-H] |  |  |  |  | 40 | 100% | 7% | 100% | zero | 300 |  | percent kill after 24 hours, with Mobam [1, 16]: 100%; 24 hour mortality, with Mobam [4, 14]: 90%; percent insect mortality, synergist alone (mobam test doses) [4]: zero
4 | C#CCON=C(C)c1ccc2ccccc2c1 [I-F] | 38% |  | 0% | 0% | 50 | 95% | 0% |  |  | 200 | 100% | percent kill after 24 hours, with Diazinon [1, 9]: 5%; percent kill after 24 hours, with Diazinon [1, 10]: 95%; percent kill after 24 hours, with Dimetilan [2]: 100%; percent kill after 24 hours, with pyrethrum [2]: 35%
5 | C#CCOCc1ccc(Cl)c(Cl)c1Cl [II-D] |  | 0% | 0% | 0% | 30 |  |  |  |  | 200 |  | percent kill after 24 hours, with Mobam [1, 6]: 92%; percent kill after 24 hours, with Dimetilan [2]: 100%; percent kill after 24 hours, with GS 13798 [2]: 100%; percent kill after 24 hours, with pyrethrum [2]: 30%
6 | C#CCOC(c1ccc(Cl)cc1)C(C)[N+](=O)[O-] (centres unmarked) [IV-C] |  |  |  |  |  | 95% | 0% | 90% | zero |  |  | percent kill after 24 hours, with Diazinon [1, 10]: 19%; 24 hour mortality, with GS 13005 [4, 13]: 30%; 24 hour mortality, with Mobam [4, 14]: 60%; 24 hour mortality, with Mobam [4, 15]: 40%; percent insect mortality, synergist alone (mobam test doses) [4]: zero
7 | C#CCOCc1ccc([N+](=O)[O-])cc1 [II-Q, 4-nitrobenzyl 2-propynyl ether] |  |  |  |  |  | 100% | 0% | 95% | zero |  |  | 
8 | C#CCOCc1cccc2ccccc12 [II-R, α-napthylmethyl 2-propynyl ether] |  |  |  |  |  | 55% | 0% | 100% | zero |  |  | 
9 | C#CCOCc1c(Cl)ccc(Cl)c1Cl [II-E] | 70% | 0% | 10% | 10% | 20 |  |  |  |  | 120 | 100% | percent kill after 24 hours, with Mobam [1, 17]: 17%; percent kill after 24 hours, with Mobam [1, 6]: 99%; percent kill after 24 hours, with GS 13798 [2]: 100%
10 | C#CCON=Cc1ccc(Cl)cc1Cl [I-G] |  | 0% | 0% | 0% |  |  |  |  |  |  | 100% | percent kill after 24 hours, with Diazinon [1, 18]: 60%; percent kill after 24 hours, with Diazinon [1, 19]: 100%; percent kill after 24 hours, synergist alone [1, 20]: 0%; percent kill after 24 hours, with pyrethrum [2]: 47%
11 | C#CCOCc1cc(Cl)c(Cl)cc1Cl [II-F] |  |  |  |  | 15 |  |  |  |  | 150 |  | 
12 | C#CCOCc1ccccc1[N+](=O)[O-] [II-P, 2-nitrobenzyl 2-propynyl ether] |  |  |  |  |  | 92% | 0% | 90% | zero |  |  | 24 hour mortality, with GS 13005 [4, 13]: 60%
13 | C#CCOCc1c(Cl)cccc1[N+](=O)[O-] [II-K] |  |  |  |  |  | 100% | 0% | 100% | zero |  |  | percent kill after 24 hours, with Mobam [1, 16]: 97%; 24 hour mortality, with Mobam [4, 14]: 100%; percent insect mortality, synergist alone (mobam test doses) [4]: zero
14 | C#CCON=C(C)c1ccc(Cl)cc1 [I-D] | 95% | 0% | 0% | 0% | 25 |  |  |  |  | 177 | 100% | percent kill after 24 hours, with Diazinon [1, 18]: 69%; percent kill after 24 hours, with Mobam [1, 17]: 19%; percent kill after 24 hours, with Mobam [1, 6]: 100%; percent kill after 24 hours, with Dimetilan [2]: 100%; percent kill after 24 hours, with GS 13798 [2]: 100%
15 | C#CCON=Cc1cccc2ccccc12 [I-I] |  | 0% | 0% | 0% |  |  |  |  |  |  | 47% | percent kill after 24 hours, with Diazinon [1, 18]: 0%; percent kill after 24 hours, with Diazinon [1, 19]: 53%; percent kill after 24 hours, synergist alone [1, 20]: 0%
